# Key:
# in vivo [1] = details: male, Beagle, dog, plasma, sc
# Protocol: Beagle dogs (males with a body weight of approximately 10-12 kg) were given a single subcutaneous (s.c.) injection of the peptides to be tested. Following s.c. administration of the selected compounds (dose 10, 20, 50, 100, 200 and 400 μg/kg), dosing volume 0.1 m/kg, blood samples were drawn at 0, 3, 6, 8, 12, 24, 48, 72, 96, 120, 144, 168, 192, 216, 240, 264, 288, 312, 336, 576, 744, 936, 1104 and 1272 hours.
# Blood was sampled through a venflon on day 1 (excluding the 8-hour timepoint). At the 8-hour sampling time, and the sampling timepoints hereafter, the blood was be sampled through v. jugularis with a vacutainer and vacutainer needle. The dosing vehicle was PBS buffer, pH 7.
# (§1) Plasma samples were analyzed after protein precipitation by liquid chromatography mass spectrometry (LC-MS/MS). Individual plasma concentrations were used for calculation of the pharmacokinetic parameters using the non-compartmental approach in Phoenix WinNonlin 8.3 or a later version. Plasma terminal elimination half-life (T½) was determined as ln(2)/λz where λz is the magnitude of the slope of the log linear regression of the log concentration versus time profile during the terminal phase. AUCinf is the area under the plasma concentration−time curve extrapolated to infinity (AUCinf=AUClast+Clast/λz, where Clast is the last observed plasma concentration). C0 is back extrapolated by log-linear regression of the first two data points.
# [2] = Pharmacokinetics in rats, single i.v. bolus (Example 11); type: in vivo, Sprague Dawley or Wistar rats; details: male, plasma, iv, rat, 511 nmol/kg
# Protocol: Sprague Dawley or Wistar rats (males with a body weight of approximately 250-350 g) were given a single intravenous (i.v. bolus) injection of the peptide to be tested. […] At each sampling time point, samples from the rats were drawn by tail cut. The dosing vehicle was 20 mM phosphate buffer, 260 mM mannitol, pH 7.
# Plasma samples were analyzed after protein precipitation by liquid chromatography mass spectrometry (LC-MS/MS). Individual plasma concentrations were used for calculation of the pharmacokinetic parameters using the non-compartmental approach in Phoenix WinNonlin 8.3 or a later version. Plasma terminal elimination half-life (T½) was determined as ln(2)/λz where λz is the magnitude of the slope of the log linear regression of the log concentration versus time profile during the terminal phase. AUCinf is the area under the plasma concentration−time curve extrapolated to infinity (AUCinf=AUClast+Clast/λz, where Clast is the last observed plasma concentration). C0 is the plasma concentration at the dosing time intercept and is back extrapolated by log-linear regression of the first two data points.
# [3] = Pharmacokinetics in Beagle dogs, single s.c. and i.v. injection (Example 5); type: in vivo; details: male, plasma, 200 ug/kg, dog
# From the text: The dosing vehicle was PBS buffer, pH 7.
# Integrin α4β7-MAdCAM-1 = Integrin α4β7-MAdCAM-1 (Homo sapiens, UniProt P13612+P26010); experiment: cell-based
# Protocol: Recombinant human MAdCAM-1 (rhMAdCAM-1) was obtained from R&D systems (Cat #6056-MC-050).
# Binding buffer (1.5 mM CaCl2, 1 mM MnCl2, 100 mM NaCl, 50 mM TRIS-HCl (pH 7.5)
# Cells: The human B lymphocyte cell line RPMI 8866 was obtained from Merck via ECACC (European collection of authenticated cell cultures) (Cat #95041316 and lot #14G012).
# Day 0: RPMI 8866 cells were split to a concentration of 500.000 cells/mL.
# A Maxisorp plate was coated with 100 μL/well of 1 μg/mL rhMAdCAM-1 in coating buffer. Plate was sealed with TopSeal A plus and incubated at 4° C. overnight.
# Day 1: The plate was washed twice with 150 μL wash buffer and then blocked with 250 μL/well blocking buffer (1% BSA in PBS) for one hour at room temperature. CFSE Celltrace stock solution was prepared immediately prior to use by adding 18 μL of DMSO to one vial of CellTrace™ reagent and mixing well. […]
# The cells were pelleted by centrifugation and resuspended in fresh pre-warmed complete culture medium and the cells were counted. […]
# After the last wash, 100 μL of PBS (without Mg^2+ and Ca^2+) was added to each well and the fluorescence was read (Ex485/Em535) using a plate reader (Envision 2105 Multimode plate reader). To calculate the concentration response, the fluorescence value of control wells not containing cells was subtracted from each test well.
# IC50 values were calculated using 4-parameter nonlinear fit of the data.
# in vivo [4] = details: male, rat, plasma, iv, 510 nmol/kg
# Protocol: Sprague Dawley or Wistar rats (males with a body weight of approximately 250-350 g) were given a single intravenous (i.v. bolus) injection of the peptide to be tested. Following i.v. administration of compound 1 (dose 510 nmol/kg, dosing volume […]), blood samples were drawn at 10 min, 15 min, 40 min, 1 h, 2 h, 4 h, 8 h, 24 h post-dose. At each sampling time point, samples from the rats were drawn by tail cut. The dosing vehicle was 20 mM phosphate buffer, 260 mM mannitol, pH 7.
# as §1, with “C0 is the plasma concentration at the dosing time intercept and is back extrapolated” for “C0 is back extrapolated”
# Integrin α4β7-MAdCAM-1, sequence (P13612 34-1032): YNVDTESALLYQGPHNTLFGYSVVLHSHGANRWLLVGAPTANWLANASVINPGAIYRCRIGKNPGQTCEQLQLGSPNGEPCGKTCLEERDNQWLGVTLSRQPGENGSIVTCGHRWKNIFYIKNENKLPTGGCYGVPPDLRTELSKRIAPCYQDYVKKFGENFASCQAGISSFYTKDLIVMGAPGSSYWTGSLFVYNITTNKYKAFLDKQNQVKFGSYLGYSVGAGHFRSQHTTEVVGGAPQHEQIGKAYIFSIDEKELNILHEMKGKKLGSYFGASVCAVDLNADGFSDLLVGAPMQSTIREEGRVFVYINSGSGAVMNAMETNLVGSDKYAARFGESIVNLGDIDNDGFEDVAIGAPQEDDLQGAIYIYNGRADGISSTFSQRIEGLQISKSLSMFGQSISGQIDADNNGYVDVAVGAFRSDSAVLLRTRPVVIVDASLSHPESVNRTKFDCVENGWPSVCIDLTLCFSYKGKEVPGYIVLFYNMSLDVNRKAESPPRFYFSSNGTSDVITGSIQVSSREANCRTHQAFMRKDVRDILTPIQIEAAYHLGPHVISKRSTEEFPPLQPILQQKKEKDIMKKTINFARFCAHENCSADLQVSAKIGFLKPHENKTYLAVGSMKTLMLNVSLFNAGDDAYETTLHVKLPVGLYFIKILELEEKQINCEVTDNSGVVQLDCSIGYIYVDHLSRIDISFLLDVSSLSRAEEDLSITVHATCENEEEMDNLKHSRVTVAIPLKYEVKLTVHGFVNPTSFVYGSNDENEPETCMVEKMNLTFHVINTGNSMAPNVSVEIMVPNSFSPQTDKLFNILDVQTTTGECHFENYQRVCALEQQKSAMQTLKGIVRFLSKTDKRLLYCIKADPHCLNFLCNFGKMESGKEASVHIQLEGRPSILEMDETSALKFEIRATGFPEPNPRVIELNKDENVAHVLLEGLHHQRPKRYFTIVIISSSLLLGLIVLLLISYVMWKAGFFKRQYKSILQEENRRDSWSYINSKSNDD
# Integrin α4β7-MAdCAM-1, sequence (P26010 20-798): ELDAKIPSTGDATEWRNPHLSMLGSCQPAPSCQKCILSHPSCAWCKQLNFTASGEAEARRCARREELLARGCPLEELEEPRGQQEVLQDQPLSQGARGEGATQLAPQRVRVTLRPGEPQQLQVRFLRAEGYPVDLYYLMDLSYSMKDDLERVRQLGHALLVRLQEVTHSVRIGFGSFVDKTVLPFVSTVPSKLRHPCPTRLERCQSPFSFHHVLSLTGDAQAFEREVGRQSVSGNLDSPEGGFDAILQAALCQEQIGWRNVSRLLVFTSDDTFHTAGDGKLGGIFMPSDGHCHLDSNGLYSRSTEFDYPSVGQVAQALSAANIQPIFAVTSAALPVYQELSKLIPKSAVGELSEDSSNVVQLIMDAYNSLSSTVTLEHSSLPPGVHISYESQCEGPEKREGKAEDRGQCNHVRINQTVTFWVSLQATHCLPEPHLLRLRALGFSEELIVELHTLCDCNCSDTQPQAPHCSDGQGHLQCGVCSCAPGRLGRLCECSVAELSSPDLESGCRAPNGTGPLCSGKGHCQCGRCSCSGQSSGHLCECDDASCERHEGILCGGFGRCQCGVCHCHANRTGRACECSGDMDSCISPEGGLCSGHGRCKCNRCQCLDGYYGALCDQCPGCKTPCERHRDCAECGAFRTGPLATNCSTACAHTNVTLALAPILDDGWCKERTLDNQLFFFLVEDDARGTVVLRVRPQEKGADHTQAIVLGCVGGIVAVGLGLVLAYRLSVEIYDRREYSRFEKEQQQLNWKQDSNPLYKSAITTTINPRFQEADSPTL
structure (smiles),measurement,setting,value
"CC[C@H](C)[C@@H]1NC(=O)[C@H](CC(=O)O)NC(=O)[C@H](CC(C)C)NC(=O)c2ccc(-c3ccc(N4CCN(C(=O)c5ccccc5-c5ccccc5C(=O)N5CCN(c6ccc(-c7ccc8cc7CNC(=O)[C@@H]7CCCN7[C@H](C(=O)NC(C)(C)C)[C@H](C)NC(=O)[C@H]([C@@H](C)CC)NC(=O)[C@H](CC(=O)O)NC(=O)[C@H](CC(C)C)NC8=O)cc6)CC5)CC4)cc3)c(c2)CNC(=O)[C@@H]2CCCN2[C@H](C(=O)NC(C)(C)C)[C@H](C)NC1=O [Compound 1, 2,2′-((S,S,S,S,S,S,12S,8S, 11S,14S,17S,18S)-((([1,1′-biphenyl]-2,2′-dicarbonyl)bis(piperazine-4,1-diyl))bis(4,1-phenylene))bis(14-((S)-sec-butyl)-18-(tert-butylcarbamoyl)-8-isobutyl-17-methyl-2,6,9,12,15-pentaoxo-3,7,10,13,16-pentaaza-1(2,1)-pyrrolidina-5(1,3)-benzenacyclooctadecaphane-56,11-diyl))diacetic acid]",AUC(0-inf),in vivo [1]; 10 ug/kg,2.46 µM·h
same,Cmax,in vivo [1]; 10 ug/kg,18.1 nM
same,Tmax,in vivo [1]; 10 ug/kg,20 h
same,half-life,in vivo [1]; 10 ug/kg,340 h
same,AUC(0-inf),in vivo [1]; 20 ug/kg,5.68 µM·h
same,Cmax,in vivo [1]; 20 ug/kg,43.1 nM
same,Tmax,in vivo [1]; 20 ug/kg,20 h
same,half-life,in vivo [1]; 20 ug/kg,460 h
same,AUC(0-inf),in vivo [1]; 50 ug/kg,11.6 µM·h
same,Cmax,in vivo [1]; 50 ug/kg,102 nM
same,Tmax,in vivo [1]; 50 ug/kg,20 h
same,half-life,in vivo [1]; 50 ug/kg,340 h
same,AUC(0-inf),in vivo [1]; 100 ug/kg,58.6 µM·h
same,Cmax,in vivo [1]; 100 ug/kg,504 nM
same,Tmax,in vivo [1]; 100 ug/kg,20 h
same,half-life,in vivo [1]; 100 ug/kg,230 h
same,AUC(0-inf),in vivo [1]; 200 ug/kg,72.5 µM·h
same,Cmax,in vivo [1]; 200 ug/kg,417 nM
same,Tmax,in vivo [1]; 200 ug/kg,20 h
same,half-life,in vivo [1]; 200 ug/kg,230 h
same,AUC(0-inf),in vivo [1]; 400 ug/kg,158 µM·h
same,Cmax,in vivo [1]; 400 ug/kg,927 nM
same,Tmax,in vivo [1]; 400 ug/kg,20 h
same,half-life,in vivo [1]; 400 ug/kg,260 h
same,AUC(0-inf),[2],34 µM·h
same,C0,[2],9020 nM
same,half-life,[2],7.88 h
same,AUC(0-inf),[3]; IV,19.3 µM·h
same,Cmax,[3]; IV,743 nM
same,half-life,[3]; IV,53 h
same,AUC(0-inf),[3]; SC,21.8 µM·h
same,Cmax,[3]; SC,127 nM
same,half-life,[3]; SC,95.2 h
same,IC50,Integrin α4β7-MAdCAM-1,35 nM
same,AUC(0-inf),in vivo [4],32.2 µM·h
same,half-life,in vivo [4],5.61 h
